From US20260070924A1, “INDAZOLE MACROCYCLES AND THEIR USE” (BLOSSOMHILL THERAPEUTICS, INC., priority 2022, published 2026)
Where two headings read alike, the source gives them in different places.

Legend:
PIM1 = PIM1 (Homo sapiens (Human), UniProt P11309); assay: HotSpot radiometric kinase assay (Reaction Biology); assay type: biochemical
Protocol: (§1) Briefly, specific kinase/substrate pairs along with required cofactors were prepared in reaction buffer; 20 mM Hepes pH 7.5, 10 mM MgCl2, 1 mM EGTA, 0.02% Brij35, 0.02 mg/ml BSA, 0.1 mM Na3VO4, 2 mM DTT, 1% DMSO. Compounds were delivered into the reaction, followed ˜20 minutes later by addition of a mixture of ATP (Sigma, St. Louis MO) and ^33P ATP (Perkin Elmer, Waltham MA) to a final concentration of […]. Reactions were carried out at room temperature for 120 min, followed by spotting of the reactions onto P81 ion exchange filter paper (Whatman Inc., Piscataway, NJ). Unbound phosphate was removed by extensive washing of filters in 0.75% phosphoric acid. […] IC50 values and curve fits were obtained using Prism (GraphPad Software).

PIM2 = PIM2 (Homo sapiens (Human), UniProt Q9P1W9); assay: as above; assay type: biochemical
PIM2, sequence (Q9P1W9 whole entry): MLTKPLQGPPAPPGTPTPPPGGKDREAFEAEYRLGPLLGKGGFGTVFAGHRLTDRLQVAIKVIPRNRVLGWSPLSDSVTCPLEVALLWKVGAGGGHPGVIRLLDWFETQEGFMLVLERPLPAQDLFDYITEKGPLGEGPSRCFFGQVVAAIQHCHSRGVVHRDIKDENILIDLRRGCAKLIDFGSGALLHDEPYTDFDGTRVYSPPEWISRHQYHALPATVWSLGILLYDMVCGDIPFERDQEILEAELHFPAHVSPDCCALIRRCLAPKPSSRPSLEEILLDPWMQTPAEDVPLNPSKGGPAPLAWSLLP
Protocol: as §1

PIM3 = PIM3 (Homo sapiens (Human), UniProt Q86V86); assay: as above; assay type: biochemical
Protocol: as §1

MV-4-11 cells = assay: MV-4-11 cell proliferation assay (CellTiter-Glo 2.0); assay type: cell-based; details: MV-4-11, 384-well, 11-dose dilution series, read-out: IC50, inhibition of MV-4-11 cell proliferation
Protocol: MV-4-11 cell line was purchased from ATCC and maintained in RPMI medium supplemented with 10% fetal bovine serum and 100 U/mL of penicillin/streptomycin. One thousand MV-4-11 cells/50 μl per well were seeded in white 384-well plate, followed by treatment with indicated compounds in a 11-dose dilution series. Cell proliferation was measured using CellTiter-Glo 2.0 luciferase-based ATP detection assay (Promega, Madison, WI) following the manufacturer's protocol. Plates were then read on a TECAN Sparks multimode microplate reader. Data was analyzed using GraphPad Prism 9 (GraphPad Software, San Diego, CA) to obtain IC50 values.

[1] = from C=Cc1nn(C2CCCCO2)c2ccc(-c3cnn(C)c3OCCN(C)C(=O)c3c(I)c(Br)nn3C)cc12; cc_pd bond; Pd(OAc)2, NaHCO3, TBAC; DMF; 54.0 mM; 140.0 °C; 1.5 h
FLT3 = FLT3 (Homo sapiens (Human), UniProt P36888); assay: HotSpot radiometric kinase assay (Reaction Biology); assay type: biochemical
FLT3, sequence (P36888 27-993): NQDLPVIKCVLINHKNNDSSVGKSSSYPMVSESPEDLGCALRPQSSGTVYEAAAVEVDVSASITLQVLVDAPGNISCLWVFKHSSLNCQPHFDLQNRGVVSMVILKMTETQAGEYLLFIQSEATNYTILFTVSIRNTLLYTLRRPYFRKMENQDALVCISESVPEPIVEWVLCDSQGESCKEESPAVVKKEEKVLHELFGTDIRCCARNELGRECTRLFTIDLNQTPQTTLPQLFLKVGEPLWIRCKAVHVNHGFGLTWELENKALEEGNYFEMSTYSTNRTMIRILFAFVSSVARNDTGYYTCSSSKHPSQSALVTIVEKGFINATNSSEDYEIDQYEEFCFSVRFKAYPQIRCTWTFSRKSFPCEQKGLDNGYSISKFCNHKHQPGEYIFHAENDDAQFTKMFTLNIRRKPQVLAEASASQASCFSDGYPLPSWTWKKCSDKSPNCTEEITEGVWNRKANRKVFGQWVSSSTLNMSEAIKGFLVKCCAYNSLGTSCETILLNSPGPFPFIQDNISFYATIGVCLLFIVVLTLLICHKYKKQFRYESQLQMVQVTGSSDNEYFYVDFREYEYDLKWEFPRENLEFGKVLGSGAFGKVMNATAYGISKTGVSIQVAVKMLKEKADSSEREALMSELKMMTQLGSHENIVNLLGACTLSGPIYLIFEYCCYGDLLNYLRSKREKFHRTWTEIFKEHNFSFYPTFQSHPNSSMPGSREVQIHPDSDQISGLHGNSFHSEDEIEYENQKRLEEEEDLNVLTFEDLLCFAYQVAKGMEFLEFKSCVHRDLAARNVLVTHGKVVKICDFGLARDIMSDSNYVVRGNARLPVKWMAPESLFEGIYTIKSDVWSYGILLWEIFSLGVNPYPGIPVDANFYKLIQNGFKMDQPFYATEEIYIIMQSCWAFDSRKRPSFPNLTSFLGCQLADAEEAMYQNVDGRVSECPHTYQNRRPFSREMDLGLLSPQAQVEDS
Protocol: (§3) Briefly, specific kinase/substrate pairs along with required cofactors were prepared in reaction buffer; 20 mM Hepes pH 7.5, 10 mM MgCl2, 1 mM EGTA, 0.02% Brij35, 0.02 mg/ml BSA, 0.1 mM Na3VO4, 2 mM DTT, 1% DMSO. Compounds were delivered into the reaction, followed ˜20 minutes later by addition of a mixture of ATP (Sigma, St. Louis MO) and ^33P ATP (Perkin Elmer, Waltham MA) to a final concentration of 10 M. Reactions were carried out at room temperature for 120 min, followed by spotting of the reactions onto P81 ion exchange filter paper (Whatman Inc., Piscataway, NJ). Unbound phosphate was removed by extensive washing of filters in 0.75% phosphoric acid. […] IC50 values and curve fits were obtained using Prism (GraphPad Software).

FLT3-ITD [2] = target: FLT3-ITD (Homo sapiens, UniProt P36888, ITD); assay: as above; assay type: biochemical
FLT3-ITD (Homo sapiens, UniProt P36888, ITD), sequence (P36888 whole entry, looked up, change not shown): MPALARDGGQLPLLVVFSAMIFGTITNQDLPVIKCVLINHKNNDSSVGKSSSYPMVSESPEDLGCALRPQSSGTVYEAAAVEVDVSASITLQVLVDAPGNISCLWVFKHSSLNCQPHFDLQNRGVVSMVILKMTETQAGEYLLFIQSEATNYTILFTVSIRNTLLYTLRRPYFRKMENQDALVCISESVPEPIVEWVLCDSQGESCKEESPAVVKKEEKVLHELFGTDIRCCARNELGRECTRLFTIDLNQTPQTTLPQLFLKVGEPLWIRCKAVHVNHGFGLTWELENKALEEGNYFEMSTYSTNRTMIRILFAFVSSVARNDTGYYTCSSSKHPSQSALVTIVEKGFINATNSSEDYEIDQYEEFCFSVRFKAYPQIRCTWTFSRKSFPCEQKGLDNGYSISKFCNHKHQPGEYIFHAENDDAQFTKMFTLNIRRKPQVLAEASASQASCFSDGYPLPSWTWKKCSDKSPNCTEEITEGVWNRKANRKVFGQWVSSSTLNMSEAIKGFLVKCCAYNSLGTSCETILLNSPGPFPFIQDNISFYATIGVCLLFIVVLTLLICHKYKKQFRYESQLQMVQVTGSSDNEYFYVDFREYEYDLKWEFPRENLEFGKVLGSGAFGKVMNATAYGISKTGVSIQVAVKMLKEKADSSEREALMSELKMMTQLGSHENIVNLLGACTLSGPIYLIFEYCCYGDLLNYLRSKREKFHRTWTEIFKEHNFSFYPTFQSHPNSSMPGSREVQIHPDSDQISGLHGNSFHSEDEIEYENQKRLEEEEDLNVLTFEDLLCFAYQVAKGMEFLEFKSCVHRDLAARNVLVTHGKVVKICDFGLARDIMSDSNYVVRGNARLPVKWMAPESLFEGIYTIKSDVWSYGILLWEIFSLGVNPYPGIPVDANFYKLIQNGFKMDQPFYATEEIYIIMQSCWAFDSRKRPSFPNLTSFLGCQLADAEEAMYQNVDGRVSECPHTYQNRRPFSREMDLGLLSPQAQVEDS
Protocol: as §3

[3] = tested on: Phospho-S6 Ribosomal Protein (S235/236); assay: Inhibition of kinase phosphorylation by Western Blot in MV-4-11; assay type: cell-based; details: Homo sapiens, MV4-11; MV-4-11 cells, 4 hour-incubation; read-out: pS6 MV-4-11 IC50
Protocol: (§2) Inhibition of kinase phosphorylation assay was performed by Western Blot using MV-4-11 and MOLM13 cell lines. Cells were plated in 24 well plates at 1 million cells per well and then treated with compounds at different concentrations, starting at 100 nM, 1:4 titration with DMSO as control. After 4 hour-incubation, cells were washed once with ice-cold PBS, and lysed in RIPA lysis buffer with protease and phosphatase inhibitors. The cell lysates were then sonicated and spun down, and 40 μg of proteins were separated by sodium dodecyl sulfate electrophoresis on a 4 to 12% Bis-Tris polyacrylamide gel and transferred onto nitrocellulose membranes using Bio-Rad Trans-Blot Turbo Transfer System (Bio-Rad). Blocking was performed using 3% BSA or 5% Non-fat dry milk (Fisher Scientific) in TBST (Tris-buffered saline containing 0.05% of Tween 20) (Bio-Rad Laboratories, Inc.). The membranes were incubated overnight with anti-phospho-FLT3 (Y589/Y591) (CST #60413), anti-phospho-STAT5 (Y694) (CST #4322), anti-Phospho-p44/42 MAPK (Erk1/2) (T202/Y204) (CST #9101), anti-Phospho-S6 Ribosomal Protein (S235/236) (CST #4858) and anti-β-Actin (CST #8457) each diluted 1000 times in 3% BSA in TBST. Membranes were washed with TBST and then incubated at room temperature for 1 hour with HRP-labeled anti-rabbit IgG polyclonal antibody (CST #7074) diluted 1000 times in 3% BSA. After TBST washing, blots were developed with a chemiluminescence system (SuperSignal West Femto Maximum Sensitivity Substrate, Pierce #34095). Luminescence was detected by LI-COR Odyssey M imaging system and luminescence intensity were quantified using Empiria Studio 2.2 software. Data was analyzed using GraphPad Prism 9 (GraphPad Software, San Diego, CA) to obtain IC50 values.

[4] = tested on: Phospho-p44/42 MAPK (Erk1/2) (T202/Y204); assay: as above; assay type: cell-based; details: Homo sapiens, MV4-11; MV-4-11 cells, 4 hour-incubation; read-out: pERK MV-4-11 IC50
Protocol: as §2

phospho-STAT5 (Y694) [5] = assay: as above; assay type: cell-based; details: Homo sapiens, MV4-11; MV-4-11 cells, 4 hour-incubation; read-out: pSTAT5 MV-4-11 IC50
Protocol: as §2

[6] = tested on: Phospho-S6 Ribosomal Protein (S235/236); assay: Inhibition of kinase phosphorylation by Western Blot in MOLM-13; assay type: cell-based; details: Homo sapiens; MOLM-13 cells, 4 hour-incubation; read-out: pS6 MOLM-13 IC50
Protocol: as §2

[7] = tested on: Phospho-p44/42 MAPK (Erk1/2) (T202/Y204); assay: as above; assay type: cell-based; details: Homo sapiens; MOLM-13 cells, 4 hour-incubation; read-out: pERK MOLM-13 IC50
Protocol: as §2

phospho-STAT5 (Y694) [8] = assay: as above; assay type: cell-based; details: Homo sapiens; MOLM-13 cells, 4 hour-incubation; read-out: pSTAT5 MOLM-13 IC50
Protocol: as §2

FLT3-ITD [9] = target: FLT3-ITD (Homo sapiens, UniProt P36888); assay: HotSpot radiometric kinase assay (Reaction Biology); assay type: biochemical
FLT3-ITD (Homo sapiens, UniProt P36888), sequence (P36888 whole entry, looked up, change not shown): as above
Protocol: as §3

PIM1, sequence (P11309 whole entry): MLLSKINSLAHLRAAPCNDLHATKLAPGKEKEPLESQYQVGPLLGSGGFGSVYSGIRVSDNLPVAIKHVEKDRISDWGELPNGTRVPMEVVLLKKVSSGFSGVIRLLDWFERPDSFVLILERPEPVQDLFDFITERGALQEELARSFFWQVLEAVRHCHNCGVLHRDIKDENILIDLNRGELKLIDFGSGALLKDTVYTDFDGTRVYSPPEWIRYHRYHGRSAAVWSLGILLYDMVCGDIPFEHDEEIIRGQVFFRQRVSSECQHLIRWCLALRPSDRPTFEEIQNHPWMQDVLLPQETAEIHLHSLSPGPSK

SMILES | IC50 (PIM1) [nM] | IC50 (PIM2) [nM] | IC50 (PIM3) [nM] | IC50 (MV-4-11 cells; Homo sapiens, MV4-11) [nM] | IC50 (FLT3) [nM] | also measured
Cc1nn(C)c2c1/C=C/c1n[nH]c3ccc(cc13)-c1cnn(C)c1OCCN(C)C2=O [compound 8, (17E)-8,12,14,16-tetramethyl-2,11,12,14-tetrahydro-8H-3,5-ethenotripyrazolo[3,4-f:3′,4′-j:4″,3″-n][1,4]oxazacyclopentadecin-13(10H)-one] | 1.64 | 8.17 | 0.0732 | < 0.2 |  | 
CN1CCOc2c(cnn2C)-c2ccc3c(c2)c(nn3C2CCCCO2)/C=C/c2c(Br)nn(C)c2C1=O (centres unmarked) |  |  |  |  |  | ring closure, yield of all isomers [1]: 94.8%
Cc1c2c(nn1C)C(=O)N(C)CCOc1c(cnn1C)-c1ccc3[nH]nc(c3c1)/C=C/2 [compound 9, (17E)-8,12,15,16-tetramethyl-2,11,12,15-tetrahydro-8H-3,5-ethenotripyrazolo[3,4-f:3′,4′-j:4″,3″-n][1,4]oxazacyclopentadecin-13(10H)-one] | 12.7 | 145 | 3.65 | ~1 | 0.347 | IC50 (FLT3-ITD [2]): 0.592 nM
CCc1nc(C(N)=O)c(Nc2ccc(N3CCC(N4CCN(C)CC4)CC3)c(OC)c2)nc1NC1CCOCC1 [Gilteritinib, reference compound] |  |  |  |  |  | IC50 [3]: 0.92 nM; IC50 [4]: 1.63 nM; IC50 (phospho-STAT5 (Y694) [5]): 1.75 nM; IC50 [6]: 7.91 nM; IC50 [7]: 1.31 nM; IC50 (phospho-STAT5 (Y694) [8]): 2.23 nM
CCc1c2c(nn1C)C(=O)N(C)CCOc1c(cnn1C)-c1ccc3[nH]nc(c3c1)/C=C/2 [compound 7, (17E)-16-ethyl-8,12,15-trimethyl-2,11,12,15-tetrahydro-8H-3,5-ethenotripyrazolo[3,4-f:3′,4′-j:4″,3″-n][1,4]oxazacyclopentadecin-13(10H)-one] | 6.72 | 14 | 0.221 |  | 0.247 | IC50 (FLT3-ITD [9]): 0.537 nM; IC50 (MV-4-11 cells): 73.1 nM
